Where two headings read alike, the source gives them in different places.
Legend:
MCF7 = test: In vitro cytotoxicity, Breast (2), MCF7; type: cell-based, human
SF-268 = test: In vitro cytotoxicity, CNS (2), SF-268; type: cell-based, human
NCI-H460 = test: In vitro cytotoxicity, Lung (2), NCI-H460; type: cell-based, human
Description: (§1) However, these compounds were not tested on prostate cancer LNCaP cell line by NCI. […] The anti-tumor activity of the compounds was determined at three doses and the total growth inhibition kill effect as pertinent of the control at 24, 48, and 72 hours as presented in Table 11.

LNCaP = test: MTT cytotoxicity assay, LNCaP prostate cancer cells; type: cell-based, human
Description: The human prostate cancer LNCaP, PC-3, and DU-145 cell lines, as well as human fibroblast cell line, were obtained from the American Type Culture Collection (“ATCC”) and maintained in RPMI-1640, F-12k, and MEM mediums, respectively, supplemented with 10% FBS. Cell lines were maintained at 37° C. under a humidified atmosphere and 5% CO2 for testing of the cytotoxicity of betulinol derivatives. The cytotoxicity assay was performed using MTT assay according to the instructions of ATCC protocol. Cells 1×10^5 in 0.1 ml/well were plated in 96-well culture plates (Costar) and incubated with a different dilution of betulinol derivatives for 24, 48, and 72 hours. Ten μl of 3-[4,5-dimethylthiazol-2-yl]-2,5 diphenyl tetrazolium bromide was added into each well at the end of each incubation period. The reaction product, formazan, was dissolved in the detergent, and the absorbance was read at 540 nm (Ref).
as §1

184B5/HER = test: In vitro cytotoxicity, Breast (1), 184B5/HER; type: cell-based; details: 1 × 10^−4 M
HOP-92 = test: In vitro cytotoxicity, Lung (2), HOP-92; type: cell-based, human
Description: as §1

CAKI-1 = test: In vitro cytotoxicity, Renal (2), CAKI-1; type: cell-based, human
Description: as §1

OVCAR-5 = test: In vitro cytotoxicity, Ovarian (2), OVCAR-5; type: cell-based, human
Description: as §1

DU-145 = test: In vitro cytotoxicity, Prostate (2), DU-145; type: cell-based, human
T-47d = test: In vitro cytotoxicity, Breast (2), T-47d; type: cell-based, human
Description: as §1

OVACR-3 = test: In vitro cytotoxicity, Ovarian (2), OVACR-3; type: cell-based, human
Description: as §1

U251 = test: In vitro cytotoxicity, CNS (2), U251; type: cell-based, human
NCI-H322M = test: In vitro cytotoxicity, Lung (2), NCI-H322M; type: cell-based, human
Description: as §1

TK-10 = test: In vitro cytotoxicity, Renal (2), TK-10; type: cell-based, human
Description: as §1

MALME-3M = test: In vitro cytotoxicity, Melanoma (2), MALME-3M; type: cell-based, human
PC-3 = test: In vitro cytotoxicity, Prostate (2), PC-3; type: cell-based, human
RXF 393 = test: In vitro cytotoxicity, Renal (2), RXF 393; type: cell-based, human
[1] = Tolerability of solubilized drug in mice with prostate cancer cell xenografts; type: in vivo; details: 22% ethanol, 2×10^−3 mol per liter of betulonic acid
[2] = Homo sapiens, 24 hours, 2.5 × 10^−5 M, read-out: Growth Inhibition %
[3] = Homo sapiens, 24 hours, 2.5 × 10^−6 M, read-out: Growth Inhibition %
[4] = Homo sapiens, 24 hours, 2.5 × 10^−7 M, read-out: Growth Inhibition %
[5] = Homo sapiens, 48 hours, 2.5 × 10^−5 M, read-out: Growth Inhibition %
[6] = Homo sapiens, 48 hours, 2.5 × 10^−6 M, read-out: Growth Inhibition %
[7] = Homo sapiens, 48 hours, 2.5 × 10^−7 M, read-out: Growth Inhibition %

C=C(C)C1CCC2(C=O)CCC3(C)C(CCC4C5(C)CCC(=O)C(C)(C)C5CCC43C)C12 (stereo not drawn) [Compound 5, Betulon Aldehyde]
Percent Killed (MCF7; MCF7, 1 × 10^−4 M): 68%
Percent Killed (SF-268; SF-268, 1 × 10^−4 M): 27%
Percent Killed (NCI-H460; NCI-H460, 1 × 10^−4 M): 89%
inhibition at 25 µM (LNCaP; [2]): 19%
inhibition at 2.5 µM (LNCaP; [3]): 21.9%
inhibition at 0.25 µM (LNCaP; [4]): 6.34%
inhibition at 25 µM (LNCaP; [5]): 40.2%
inhibition at 2.5 µM (LNCaP; [6]): 47.4%
inhibition at 0.25 µM (LNCaP; [7]): 29.8%

C=C(C)[C@@H]1CC[C@]2(C(=O)O)CC[C@]3(C)[C@H](CC[C@@H]4[C@@]5(C)CC[C@H](O)C(C)(C)[C@@H]5CC[C@]43C)[C@@H]12 [Compound 2, Betulinic Acid]
Growth Inhibition % (LNCaP; 24 hours, 2.5 × 10^−5 M): 41.0%

C=C(C)[C@@H]1CC[C@]2(CO)CC[C@]3(C)[C@H](CC[C@@H]4[C@@]5(C)CC[C@H](OC(C)=O)C(C)(C)[C@@H]5CC[C@]43C)[C@@H]12 [Compound 8, 3-Acetoxy Betulin]
Growth Inhibition % (LNCaP; 24 hours, 2.5 × 10^−7 M): 0%

C=C(C)C1CCC2(COC)CCC3(C)C(CCC4C5(C)CCC(OC)C(C)(C)C5CCC43C)C12 (stereo not drawn) [Compound 7, Betulin Dimethyl ether (Cornelon)]
Percent Killed (MCF7; MCF7, 1 × 10^−4 M): 97%
Percent Killed (184B5/HER): Toxic
Percent Killed (SF-268; SF-268, 1 × 10^−4 M): 100%
Percent Killed (NCI-H460; NCI-H460, 1 × 10^−4 M): 80%
inhibition at 25 µM (LNCaP; [2]): 45%
inhibition at 2.5 µM (LNCaP; [3]): 18.1%
inhibition at 0.25 µM (LNCaP; [4]): 7.76%
inhibition at 25 µM (LNCaP; [5]): 50.9%
inhibition at 2.5 µM (LNCaP; [6]): 44%
inhibition at 0.25 µM (LNCaP; [7]): 27.9%

C=C(C)[C@@H]1CC[C@]2(COC(C)=O)CC[C@]3(C)[C@H](CC[C@@H]4[C@@]5(C)CC[C@H](OC(C)=O)C(C)(C)[C@@H]5CC[C@]43C)[C@@H]12 [Compound 6, Betulin Diacetate]
Percent Killed (HOP-92; HOP-92, 1 × 10^−4 M): 100%
Percent Killed (HOP-92; HOP-92, 1 × 10^−5 M): 100%
Percent Killed (HOP-92; HOP-92, 1 × 10^−6 M): 100%
Percent Killed (CAKI-1; CAKI-1, 1 × 10^−4 M): 100%
Percent Killed (CAKI-1; CAKI-1, 1 × 10^−5 M): 100%
Percent Killed (CAKI-1; CAKI-1, 1 × 10^−6 M): 100%
Percent Killed (MCF7; MCF7, 1 × 10^−4 M): 100%
Percent Killed (MCF7; MCF7, 1 × 10^−5 M): 100%
Percent Killed (MCF7; MCF7, 1 × 10^−6 M): 100%
Percent Killed (MCF7; MCF7, 1 × 10^−7 M): 100%
Percent Killed (OVCAR-5; OVCAR-5, 1 × 10^−4 M): 100%
Percent Killed (OVCAR-5; OVCAR-5, 1 × 10^−5 M): 100%
Percent Killed (OVCAR-5; OVCAR-5, 1 × 10^−6 M): 100%
Percent Killed (DU-145; DU-145, 1 × 10^−4 M): 100%
Percent Killed (DU-145; DU-145, 1 × 10^−5 M): 100%
Percent Killed (DU-145; DU-145, 1 × 10^−6 M): 100%
Percent Killed (DU-145; DU-145, 1 × 10^−7 M): 100%
Percent Killed (DU-145; DU-145, 1 × 10^−8 M): 27%
Percent Killed (T-47d; 1 × 10^−4 M): 100%
Percent Killed (T-47d; 1 × 10^−5 M): 100%
Percent Killed (T-47d; 1 × 10^−6 M): 100%
Percent Killed (T-47d; 1 × 10^−7 M): 23%
Percent Killed (OVACR-3; OVACR-3, 1 × 10^−4 M): 100%
Percent Killed (OVACR-3; OVACR-3, 1 × 10^−5 M): 100%
Percent Killed (OVACR-3; OVACR-3, 1 × 10^−6 M): 96%
Percent Killed (SF-268; SF-268, 1 × 10^−4 M): 100%
Percent Killed (SF-268; SF-268, 1 × 10^−5 M): 100%
Percent Killed (SF-268; SF-268, 1 × 10^−6 M): 100%
Percent Killed (SF-268; SF-268, 1 × 10^−7 M): 75%
Percent Killed (SF-268; SF-268, 1 × 10^−8 M): 15%
Percent Killed (U251; U251, 1 × 10^−4 M): 100%
Percent Killed (U251; U251, 1 × 10^−5 M): 100%
Percent Killed (U251; U251, 1 × 10^−6 M): 100%
Percent Killed (U251; U251, 1 × 10^−7 M): 100%
Percent Killed (NCI-H460; NCI-H460, 1 × 10^−4 M): 100%
Percent Killed (NCI-H460; NCI-H460, 1 × 10^−5 M): 100%
Percent Killed (NCI-H460; NCI-H460, 1 × 10^−6 M): 100%
Percent Killed (NCI-H460; NCI-H460, 1 × 10^−7 M): 25%
Percent Killed (NCI-H322M; 1 × 10^−4 M): 100%
Percent Killed (NCI-H322M; 1 × 10^−5 M): 100%
Percent Killed (NCI-H322M; 1 × 10^−6 M): 100%
Percent Killed (TK-10; TK-10, 1 × 10^−4 M): 100%
Percent Killed (TK-10; TK-10, 1 × 10^−5 M): 100%
Percent Killed (TK-10; TK-10, 1 × 10^−6 M): 49%
Percent Killed (MALME-3M; 1 × 10^−4 M): 100%
Percent Killed (MALME-3M; 1 × 10^−5 M): 100%
Percent Killed (MALME-3M; 1 × 10^−6 M): 100%
Percent Killed (MALME-3M; 1 × 10^−7 M): 100%
Percent Killed (MALME-3M; 1 × 10^−8 M): 98%
Percent Killed (PC-3; PC-3, 1 × 10^−4 M): 25%
Percent Killed (PC-3; PC-3, 1 × 10^−5 M): 15%
Percent Killed (RXF 393; RXF 393, 1 × 10^−4 M): 100%
Percent Killed (RXF 393; RXF 393, 1 × 10^−5 M): 100%
Percent Killed (RXF 393; RXF 393, 1 × 10^−6 M): 100%
Percent Killed (RXF 393; RXF 393, 1 × 10^−7 M): 97%
Percent Killed (RXF 393; RXF 393, 1 × 10^−8 M): 15%
inhibition at 25 µM (LNCaP; [2]): 17%
inhibition at 2.5 µM (LNCaP; [3]): 18.7%
inhibition at 0.25 µM (LNCaP; [4]): 0%
inhibition at 25 µM (LNCaP; [5]): 56.6%
inhibition at 2.5 µM (LNCaP; [6]): 46.7%
inhibition at 0.25 µM (LNCaP; [7]): 27.9%

C=C(C)C1CCC2(CO)CC[C@]3(C)[C@H](CC[C@@H]4[C@@]5(C)CCC(O)C(C)(C)[C@@H]5CC[C@]43C)C12 (stereo partly drawn) [Compound 1, Betulinol]
inhibition at 25 µM (LNCaP; [2]): 47.2%
inhibition at 2.5 µM (LNCaP; [3]): 11.9%
inhibition at 0.25 µM (LNCaP; [4]): 8.24%
inhibition at 25 µM (LNCaP; [5]): 31%
inhibition at 2.5 µM (LNCaP; [6]): 13.8%
inhibition at 0.25 µM (LNCaP; [7]): 10.6%

C=C(C)[C@@H]1CC[C@]2(C=O)CC[C@]3(C)[C@H](CC[C@@H]4[C@@]5(C)CC[C@H](O)C(C)(C)[C@@H]5CC[C@]43C)[C@@H]12 [Compound 3, Betulin Aldehyde]
Growth Inhibition % (LNCaP; 24 hours, 2.5 × 10^−6 M): 11.0%

C=C(C)C1CCC2(C(=O)NCCCCC(NC(=O)OC(C)(C)C)C(=O)O)CC[C@]3(C)[C@H](CC[C@@H]4[C@@]5(C)CCC(=O)C(C)(C)[C@@H]5CC[C@]43C)C12 (stereo partly drawn) [Boc-Monomer]
tolerability [1]: well tolerated

C=C(C)C1CCC2(C(=O)NCCCCC(NC(=O)OC(C)(C)C)C(=O)OC)CC[C@]3(C)[C@H](CC[C@@H]4[C@@]5(C)CCC(=O)C(C)(C)[C@@H]5CC[C@]43C)C12 (stereo partly drawn) [Monomer]
cells killed (LNCaP; 1×10^−4 M): ~80%
inhibition at 100 µM (LNCaP; Homo sapiens, 48 hours, 1 × 10^−4 M, read-out: Growth Inhibition %): 82.8 ± 14.3%
